Results reported in EP1289507B1, “USE OF AN ALDOSTERONE ANTAGONIST FOR THE TREATMENT OR PROPHYLAXIS OF ALDOSTERONE-MEDIATED PATHOGENIC EFFECTS” (priority 2000, dated 2001).
Where two headings read alike, the source gives them in different places.

Experiments:
[1] = Pharmacokinetics and tolerability in subjects with moderate hepatic impairment vs normal healthy subjects; assay type: in vivo, human subjects; settings: for AUC(0-t): read-out: AUC (0-lqc), Least Squares Mean; for AUC(0-inf): read-out: AUC (0-∞), Least Squares Mean
[2] = Form H content of dried solids by X-ray powder diffraction (XPRD); assay type: physicochemical; settings: for Estimated Weight Percent of Form H / Form H Peak Area 12° Two Theta Peak: dried solids from methyl ethyl ketone crystallization
Protocol: The weight percent of the diepoxide or 11,12-epoxide in each sample is given in Tables C-6A and C-6B, respectively. A micro-flea magnetic stirrer was added to each scintillation vial along with 1 mL of methyl ethyl ketone. The vials were loosely capped and the solid dissolved by heating to reflux on a hot plate with magnetic stirring. Once the solids were dissolved, the solutions were allowed to cool to room temperature on the hot plate. Magnetic stirring was maintained during the cooling period. After the solutions reached room temperature, the solids were collected by vacuum filtration and immediately analyzed by X-ray powder diffraction (XPRD). The solids were then placed in a 100°C oven and dried for one hour at ambient pressure. The dried solids were analyzed by XPRD for Form H content by monitoring the area of the Form H diffraction peak at about 12.1 degrees two theta. All XPRD diffraction patterns were recorded using an Inel Multipurpose Diffractometer. Table C-6A
The peak intensities have been normalized for ease of comparison. No Form H was detected for the dried samples corresponding to the methyl ethyl ketone crystallizations performed at doping levels of 0 and 1%. Form H was detected in the dried samples corresponding to the methyl ethyl ketone crystallizations performed at doping levels of 3 and 5%. The area for the Form H diffraction peak at about 12.1 degrees two theta and the estimated Form H content for each sample are given in Table C-6C below. Table C-6C
The peak intensities have been normalized for ease of comparison. No Form H was detected for the dried samples corresponding to the methyl ethyl ketone crystallizations performed at doping levels of 0, 1% and 5%. Form H was detected in the dried samples corresponding to the methyl ethyl ketone crystallization performed at a doping level of 10%. The area for the Form H diffraction peak at 12.1 degrees two theta and estimated Form H content for each sample are given in Table C-6D. Table C-6D
Table C-7B reports the weight fraction of Form H measured in materials dried using either a fluid bed (LAB-LINE/P.R.L. Hi-Speed Fluid Bed Dryer, Lab-Line Instruments, Inc.) or a vacuum oven (Baxter Scientific Products Vacuum Drying Oven, Model DP-32). […] Table C-7B

[3] = test system: L-NAME/ANG-II-induced renal injury in rats; settings: cited from earlier work
[4] = human, in vivo, 400 mg, Single Dose, Moderate Impairment
[5] = human, in vivo, 400 mg, Single Dose, Normal
[6] = 0% 11,12-epoxide in starting eplerenone mixture
[7] = 0% diepoxide in starting eplerenone mixture
[8] = 1% 11,12-epoxide in starting eplerenone mixture
[9] = 1% diepoxide in starting eplerenone mixture
[10] = 3% diepoxide in starting eplerenone mixture
[11] = 5% 11,12-epoxide in starting eplerenone mixture
[12] = 5% diepoxide in starting eplerenone mixture
[13] = 10% 11,12-epoxide in starting eplerenone mixture

Q: For COC(=O)[C@@H]1CC2=CC(=O)CC[C@]2(C)[C@@]23O[C@@H]2C[C@@]2(C)[C@@H](CC[C@@]24CCC(=O)O4)[C@H]13 [Eplerenone, Pregn-4-ene-7,21-dicarboxylic acid, 9,11-epoxy-17-hydroxy-3-oxo-, γ-lactone, methyl ester, (7α, 11α, 17β)-], which “AUC greater among subjects with moderate hepatic impairment than matched normal subjects” value ([1]; 400 mg, single dosing, b445 and b448 state it for single and multiple dose) is on record?
A: Its value is 41-50%.

Q: What about the “Ratio of Means AUC (0-24)/AUC0-co)” value ([1]; Moderate Hepatic Impairment) of the same molecule?
A: The value was 0.95.

Q: What about the “AUC (0-24), Ratio of Means Moderate/Normal” value ([1]; Multiple Dose) of the same molecule?
A: The value was 1.456.

Q: And the “CL/F, Ratio of Means Moderate/Normal” value ([1]; Multiple Dose)?
A: Its value is 0.687.

Q: And the “Cmax, Ratio of Means Moderate/Normal” value ([1]; Multiple Dose)?
A: Its value is 1.037.

Q: What about the “XU(0-48), Ratio of Means Moderate/Normal” value ([1]; Multiple Dose) of the same molecule?
A: Its value is 2.007.

Q: What about the “XU(0-48), Least Squares Mean” value ([1]; Multiple Dose, Moderate Impairment) of the same molecule?
A: The value was 14.9 mg.

Q: What about the “XU(0-48), Least Squares Mean” value ([1]; Multiple Dose, Normal) of the same molecule?
A: The value was 7.4 mg.

Q: What about the “Ratio of Means AUC (0-24)/AUC0-co)” value ([1]; Normal) of the same molecule?
A: Its value is 1.02.

Q: And the “AUC (0-lqc), Ratio of Means Moderate/Normal” value ([1]; Single Dose)?
A: Its value is 1.413.

Q: What about the “AUC (0-∞), Ratio of Means Moderate/Normal” value ([1]; Single Dose) of the same molecule?
A: Its value is 1.497.

Q: And the “CL/.F, Ratio of Means Moderate/Normal” value ([1]; Single Dose)?
A: Its value is 0.668.

Q: What about the “Cmax, Ratio of Means Moderate/Normal” value ([1]; Single Dose) of the same molecule?
A: Its value is 0.894.

Q: What about the “XU(0-48), Ratio of Means Moderate/Normal” value ([1]; Single Dose) of the same molecule?
A: The value was 1.016.

Q: And the “XU(0-48), Least Squares Mean” value ([1]; Single Dose, Moderate Impairment)?
A: The value was 7.9 mg.

Q: And the “XU(0-48), Least Squares Mean” value ([1]; Single Dose, Normal)?
A: Its value is 7.8 mg.

Q: And the “AUC higher in moderate impairment compared to matched normal subjects” value ([1]; following multiple dosing 400 mg QD)?
A: Its value is 46%.

Q: And the AUC tau at 24 h ([1]; human, in vivo, 400 mg, Multiple Dose, Moderate Impairment, read-out: AUC (0-24), Least Squares Mean)?
A: The AUC tau at 24 h was 43800 ng·h/mL.

Q: What about the CL/F ([1]; human, in vivo, 400 mg, Multiple Dose, Moderate Impairment, read-out: CL/F, Least Squares Mean (converted)) of the same molecule?
A: Its CL/F is 152 mL/min.

Q: And the CL/F ([1]; human, in vivo, 400 mg, Multiple Dose, Moderate, read-out: CL/F, Mean (converted))?
A: The CL/F was 149 mL/min.

Q: What about the AUC tau at 24 h ([1]; human, in vivo, 400 mg, Multiple Dose, Normal, read-out: AUC (0-24), Least Squares Mean) of the same molecule?
A: The AUC tau at 24 h was 30100 ng·h/mL.

Q: What about the CL/F ([1]; human, in vivo, 400 mg, Multiple Dose, Normal, read-out: CL/F, Least Squares Mean (converted)) of the same molecule?
A: The CL/F was 222 mL/min.

Q: What about the CL/F ([1]; human, in vivo, 400 mg, Multiple Dose, Normal, read-out: CL/F, Mean (converted)) of the same molecule?
A: Its CL/F is 230 mL/min.

Q: And the Tmax ([1]; human, in vivo, 400 mg, Multiple Dose, Normal, read-out: Tmax, Least Squares Mean)?
A: Its Tmax is 2.1 h.

Q: And the AUC(0-t) [1, 4]?
A: The AUC(0-t) was 42800 ng·h/mL.

Q: What about the AUC(0-inf) [1, 4] of the same molecule?
A: The AUC(0-inf) was 43600 ng·h/mL.

Q: And the CL/F ([1]; human, in vivo, 400 mg, Single Dose, Moderate Impairment, read-out: CL/.F, Least Squares Mean (converted))?
A: Its CL/F is 153 mL/min.

Q: And the CL/F ([1]; human, in vivo, 400 mg, Single Dose, Moderate, read-out: CL/F, Mean (converted))?
A: The CL/F was 175 mL/min.

Q: And the AUC(0-t) [1, 5]?
A: The AUC(0-t) was 30300 ng·h/mL.

Q: And the AUC(0-inf) [1, 5]?
A: The AUC(0-inf) was 29100 ng·h/mL.

Q: What about the CL/F ([1]; human, in vivo, 400 mg, Single Dose, Normal, read-out: CL/.F, Least Squares Mean (converted)) of the same molecule?
A: Its CL/F is 228 mL/min.

Q: What about the CL/F ([1]; human, in vivo, 400 mg, Single Dose, Normal, read-out: CL/F, Mean (converted)) of the same molecule?
A: The CL/F was 254 mL/min.

Q: What about the AUC tau at 24 h ([1]; human, in vivo, 400 mg, linear kinetics assessment, Moderate Hepatic Impairment, read-out: Multiple Dose AUC (0-24), Least Squares Mean) of the same molecule?
A: The AUC tau at 24 h was 47200 ng·h/mL.

Q: What about the AUC tau at 24 h ([1]; human, in vivo, 400 mg, linear kinetics assessment, Normal, read-out: Multiple Dose AUC (0-24), Least Squares Mean) of the same molecule?
A: Its AUC tau at 24 h is 29300 ng·h/mL.

Q: And the “subjects with adverse events” value ([1]; subjects with moderate hepatic impairment)?
A: The value was 44%.

Q: And the “subjects with adverse events” value ([1]; subjects with normal hepatic function)?
A: The value was 35%.

Q: And the “Weight Percent Form H (XPRD)” value ([2]; cooling rate (0) 1.5°C/min, endpoint (0) 25°C, 100.8% eplerenone seeded with Form H, analyzed by DSC)?
A: The value was 100 Weight Percent.

Q: What about the “Weight Percent Form H (XPRD)” value ([2]; cooling rate (0) 1.5°C/min, endpoint (0) 25°C, 100.8% eplerenone seeded with Form H, analyzed by XPRD) of the same molecule?
A: The value was 77 Weight Percent.

Q: And the “Weight Percent Form H (XPRD)” value ([2]; cooling rate (+) 3°C/min, cooling endpoint (+) 45°C, impurity level (+) 89.3% purity starting material)?
A: Its value is 29 Weight Percent.

Q: What about the “Weight Percent Form H (XPRD)” value ([2]; cooling rate (-) 0.1°C/min, cooling endpoint (+) 45°C, impurity level (+) 89.3% purity starting material) of the same molecule?
A: Its value is 31 Weight Percent.

Q: And the “Weight Percent Form H” value ([2]; cooling rate High, end point High, impurity level High, drying: High Fluid Bed)?
A: The value was 25%.

Q: And the “Weight Percent Form H” value ([2]; cooling rate High, end point High, impurity level High, drying: Low Fluid Bed)?
A: Its value is 4.7%.

Q: What about the “Weight Percent Form H” value ([2]; cooling rate High, end point High, impurity level High, drying: Vacuum Oven) of the same molecule?
A: Its value is 29%.

Q: And the “Weight Percent Form H” value ([2]; cooling rate Low, end point Low, impurity level Low, drying: Low Fluid Bed)?
A: Its value is 5.5%.

Q: What about the “Estimated Weight Percent of Form H” value [2, 6] of the same molecule?
A: The value was “None Detected”.

Q: What about the “Form H Peak Area 12° Two Theta Peak” value [2, 6] of the same molecule?
A: Its value is “None Detected”.

Q: What about the “Estimated Weight Percent of Form H” value [2, 7] of the same molecule?
A: The value was “None Detected”.

Q: And the “Form H Peak Area 12° Two Theta Peak” value [2, 7]?
A: Its value is “None Detected”.

Q: And the “Estimated Weight Percent of Form H” value [2, 8]?
A: The value was “None Detected”.

Q: And the “Form H Peak Area 12° Two Theta Peak” value [2, 8]?
A: The value was “None Detected”.

Q: And the “Estimated Weight Percent of Form H” value [2, 9]?
A: Its value is “None Detected”.

Q: And the “Form H Peak Area 12° Two Theta Peak” value [2, 9]?
A: Its value is “None Detected”.

Q: What about the “Estimated Weight Percent of Form H” value [2, 10] of the same molecule?
A: Its value is 10%.

Q: And the “Form H Peak Area 12° Two Theta Peak” value [2, 10]?
A: The value was 1168.

Q: And the “Estimated Weight Percent of Form H” value [2, 11]?
A: Its value is “None Detected”.

Q: And the “Form H Peak Area 12° Two Theta Peak” value [2, 11]?
A: Its value is “None Detected”.

Q: What about the “Estimated Weight Percent of Form H” value [2, 12] of the same molecule?
A: Its value is 30%.

Q: And the “Form H Peak Area 12° Two Theta Peak” value [2, 12]?
A: The value was 4175.

Q: What about the “Estimated Weight Percent of Form H” value [2, 13] of the same molecule?
A: Its value is 10-15%.

Q: What about the “Form H Peak Area 12° Two Theta Peak” value [2, 13] of the same molecule?
A: The value was 1541.

Q: What about the L-NAME/ANG-II-induced renal injury [3] of the same molecule?
A: The L-NAME/ANG-II-induced renal injury was “prevents L-NAME/ANG-II-induced renal injury”.
